The values below come from patent US4748161A, “Triterpenyl esters of organic acids and hypolipidemic agents composed of them” (Amano Pharmaceutical Co., Ltd., priority 1984, dated 1988).

Data set [1] deals with male ddy strain mice. Description: Acute toxicity test, mice, oral. It counts as in vivo, mouse (male ddy strain). To be noted: 0.1 to 5 g/Kg; for Mortality: 2 weeks observation. The method, then:
(§1) Acute toxicity tests were conducted using 5 male ddy strain mice (30±2 g) and 5 male Wistar strain rats (100±2 g) for each compound by oral administration.
(§2) The above 66 compounds of esters, and as control drugs, cycloartenol, 24-methylenecycloartanol, cyclobranol, and γ-orizanol were given forcibly to the above-mentioned mice and rats by means of a throat explorer rod in doses of 0.1 to 5 g/Kg for mice and 2 to 6 g/Kg for rats. During the test, the temperature of the animal room was kept at 22° to 23 ° C. […] In the inspection conducted after 2-week observation, no macroscopic lesion was found in any part of main organs. Thus the compound of the invention has very low toxicity, so that the LD50 value could not determined.

The subject of data set [2] is serum lipids and serum lipid hydroperoxide. In words: Pharmacological test method A for anti-hyperlipidemic activity (serum lipids, 2 weeks feeding). The class given is in vivo, male Wistar strain rats. Summed up: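 Serum TC, HDL-C (heparin precipitation), PL, TG and LPO measured by colorimetric kits, largely at 500 nm, from abdominal aorta blood after 16 h fasting. Rats (male Wistar, 10/group) ate a cholesterol/cholic acid diet 10 g/day for 2 weeks, supplemented with 1% each of three cycloartane triterpenoids.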

The test system of data set [3] is male Wistar strain rats. Description: Acute toxicity test, rats, oral. It counts as in vivo, rat (male Wistar strain). As to conditions: 2 to 6 g/Kg; for Mortality: 2 weeks observation. The method, then: as §1, §2
Data set [4] deals with serum TC. As to conditions: 1% added to diet containing 0.5% of cholesterol; cited from earlier work.

On to `C=C(CCC(C)C1CCC2(C)C3CCC4C(C)(C)C(O)CCC45CC35CCC12C)C(C)C` (stereo not drawn) [Sample 3, 24-methylenecycloartanol], for which, in data set [1], the Symptoms of toxicosis entry is reported as “no symptom of toxicosis appeared” and the Mortality entry was “none of the animals died”. The AI change result in data set [2] is on record as “only a slight tendency to increase”. Moreover, in data set [3], the Symptoms of toxicosis result is on record as “no symptom of toxicosis appeared” and the Mortality result is reported as “none of the animals died”. For the same compound, the “percentage of TC lowering” value in data set [4] was 10.2%.

On to `CC(C)=CCC[C@@H](C)[C@H]1CC[C@@]2(C)[C@@H]3CC[C@H]4C(C)(C)[C@@H](O)CC[C@@]45C[C@@]35CC[C@]12C` [Sample 1, cycloartenol], for which, in data set [1], the Symptoms of toxicosis entry is “no symptom of toxicosis appeared” and the Mortality result was “none of the animals died”. In data set [2], the AI change result was “showed tendencies to decrease it”. In data set [3], the Symptoms of toxicosis entry is given as “no symptom of toxicosis appeared” and the Mortality entry is reported as “none of the animals died”. For the same compound, in data set [4], the “percentage of TC lowering” value is given as 13.7%.
